Measured values taken from patent US9408890B2, “Multivalent liposome formulations” (priority 2013, dated 2016).

Assays:
Type in all cases: cell-based, influenza A virus
[1] = system: Influenza A/Philippines X-79 (H3N2); conditions: 74,000 nM monovalent LSTc; data not shown
[2] = system: influenza A/Puerto Rico/8/34 (PR/8, H1N1); parameters: inhibition of hemagglutination: dose or concentration left out as unconfirmed
[3] = system: influenza A/Puerto Rico/8/34 (PR/8, H1N1)

For “sialylneolacto-N-tetraose c [Monovalent LSTc]”, the “inhibition of infectivity of Philippines” value [1] was “did not inhibit the infectivity”, the inhibition of hemagglutination [2] was “did not inhibit hemagglutination” and the “HAI Titer” value ([2]; four HA units of virus, human RBCs, reciprocal of last liposome dilution giving non-agglutinated RBCs) was “No inhibition”. The “inhibition of PR/8 infection of MDCK cells (FIG. 3A)” value [3] was “did not significantly inhibited infection at high concentrations” and the “inhibition of infectivity of PR/8” value ([3]; 74,000 nM monovalent LSTc) was “did not inhibit the infectivity”.
